Test [1] deals with lipid plaque on arterial vascular walls in the thoracic cavity. The test is described as follows: Lipid plaque staining in arteries of high cholesterol diet animals. Format: in vivo, hamsters. To be noted: high cholesterol diet for eight weeks, human-equivalent per day: MK 2.89 mg, MS 9.82 mg, AF 1.43 mg. The method, then: Firstly, the experiment utilizes hamsters feed with high cholesterol diet as experimental animals, which are then feed with MS, AF, MS+AF, and MK for 8 weeks, and then each of cholesterol parameters in blood of the hamsters are analyzed. The cholesterol parameters include total cholesterol (TC), triglyceride (TG), high density lipoprotein cholesterol (HDL-C), low density lipoprotein cholesterol (LDL-C), ratio of LDL-C to HDL-C, and malondialdehyde (MDA). The amount of the MK taken by the experimental animals is equivalent to 2.89 mg taken by an adult human per day. Additionally, a normal diet group is referred to as NOR, and a high cholesterol diet group is referred to as HC.
Another important indicator for evaluating atherosclerosis is the analysis of lipid plaque staining in arteries, and the results of lipid plaque staining can indicate that whether lipid plaque deposits on arterial vascular walls. Large amounts of lipid with over-oxidation can cause bulk deposition of foam cells, and then the vascular walls lose elasticity and large amounts of lipid plaque are deposited, so as to lead to atherosclerosis. Referring to FIG. 11, which is a diagram of quantitative results of the lipid plaque staining experiment.

The test system of test [2] is hamsters feed with high cholesterol diet. Briefly: Cholesterol parameters in blood of hamsters fed high cholesterol diet. In kind it is in vivo. To be noted: ratio of LDL-C to HDL-C, hamsters on high cholesterol diet, 8 weeks.
Experimental: Additionally, a composition containing monacolin K is utilized as a comparison group, which is called as MK for abbreviation.
Firstly, the experiment utilizes hamsters feed with high cholesterol diet as experimental animals, which are then feed with MS, AF, MS+AF, and MK for 8 weeks, and then each of cholesterol parameters in blood of the hamsters are analyzed. The cholesterol parameters include total cholesterol (TC), triglyceride (TG), high density lipoprotein cholesterol (HDL-C), low density lipoprotein cholesterol (LDL-C), ratio of LDL-C to HDL-C, and malondialdehyde (MDA). […] Additionally, a normal diet group is referred to as NOR, and a high cholesterol diet group is referred to as HC.
The subject of another test is cholesterol biosynthesis. Briefly: Cell experiment on inhibition of cholesterol biosynthesis. In kind it is cell-based. To be noted: cells treated with the same concentration, 100 ppb. The text has this: In order to compare the inhibitory effect of cholesterol biosynthesis by monascin, ankaflavin and monacolin K, the present invention applies a cell experiment and treats cells with monascin, ankaflavin and monacolin K with the same concentration (100 ppb) for researching the influence of these ingredients on the cholesterol biosynthesis.

Experimental findings from patent US9364457B2, “Method for manufacturing composition for lowering blood lipid and elevating high-density lipoprotein” (SunWay Biotech Co., Ltd., priority 2011, dated 2016) are described below.

As to `CC[C@H](C)C(=O)O[C@H]1C[C@@H](C)C=C2C=C[C@H](C)[C@H](CC[C@@H]3C[C@@H](O)CC(=O)O3)[C@H]21` [MK, monacolin K], the “amount of lipid plaque on arterial vascular walls (lipid plaque staining, FIG. 11)” value in test [1] is on record as “can lower the amount of lipid plaque”. In test [2], the LDL/HDL was determined as 0.489. For the same compound, the “inhibition of cholesterol biosynthesis (FIG. 12)” value in the test on cholesterol biosynthesis is listed as “weakest effect”.
